pIC50: −log10 of the molar value. Where two headings read alike, the source gives them in different places.
Key:
[1] = system: E. coli + (AmpC); experiment: microbial assay, MIC in broth, antibiotic with inhibitor 1:1; assay type: cell-based; conditions: Escherichia coli, serial two-fold dilutions
Method: (§1) Representative Example 9 was tested in a microbial assay in combination with the penicillin antibiotic Piperacillin. In these tests, minimum inhibitory concentration(MIC) are determined in broth using serial two-fold dilutions with a 1:1 ratio of Piperacillin to inhibitor(N. A. Kuck; N. V. Jacobs; P. J. Peterson; W. J. Weiss; and R. T. Testa, in “Antimicrobial Agents and Chemotherapy”, Vol. 33, 1989, pages 1964-1969).

[2] = system: P. aeroginosa (AmpC derepressed); experiment: as above; assay type: cell-based; conditions: serial two-fold dilutions
Method: as §1

[3] = system: S. marcescens (AmpC); experiment: as above; assay type: cell-based; conditions: Serratia marcescens, serial two-fold dilutions
Method: as §1

[4] = system: E. coli 300 + (AmpC); experiment: as above; assay type: cell-based; conditions: for MIC: Escherichia coli, Table II, combinations 1:1 ratio antibiotic to inhibitor
Method: as §1

[5] = system: E. coli GC 6265 (TEM-1); experiment: as above; assay type: cell-based; conditions: for MIC: Escherichia coli, Table II, combinations 1:1 ratio antibiotic to inhibitor
Method: as §1

[6] = system: E. coli + (TEM-1); experiment: as above; assay type: cell-based; conditions: Table III, serial two-fold dilutions, combinations 1:1 ratio Piperacillin to inhibitor
Method: as §1

[7] = molecular target: Class A(TEM-1) beta-lactamase (Escherichia coli, UniProt P62593); experiment: beta-lactamase inhibition, spectrophotometric with nitrocefin; assay type: biochemical; conditions: for pIC50: 10-minute preincubation of enzyme with inhibitor at 25° C., nitrocefin substrate; for inhibition of class A(TEM-1) enzymes, in words: summary of Table I
Sequence of Class A(TEM-1) beta-lactamase (P62593 24-286 limits assumed): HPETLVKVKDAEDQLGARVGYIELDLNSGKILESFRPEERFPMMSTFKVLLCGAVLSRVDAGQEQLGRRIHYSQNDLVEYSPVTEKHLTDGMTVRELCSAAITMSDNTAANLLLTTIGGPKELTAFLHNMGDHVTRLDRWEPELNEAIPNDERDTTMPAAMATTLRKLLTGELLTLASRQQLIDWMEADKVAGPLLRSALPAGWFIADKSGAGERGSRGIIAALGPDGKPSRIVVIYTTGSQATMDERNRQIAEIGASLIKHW

[8] = molecular target: Class C(AmpC) beta-lactamase (UniProt P00811); experiment: as above; assay type: biochemical; conditions: for pIC50: 10-minute preincubation of enzyme with inhibitor at 25° C., nitrocefin substrate; for inhibition of class C(AmpC) enzymes, in words: summary of Table I
[9] = molecular target: Class B(Imi-1) beta-lactamase (Enterobacter cloacae, UniProt Q46991); experiment: as above; assay type: biochemical; conditions: 10-minute preincubation of enzyme with inhibitor at 25° C., nitrocefin substrate
Sequence of Class B(Imi-1) beta-lactamase (Q46991 entry or part of it): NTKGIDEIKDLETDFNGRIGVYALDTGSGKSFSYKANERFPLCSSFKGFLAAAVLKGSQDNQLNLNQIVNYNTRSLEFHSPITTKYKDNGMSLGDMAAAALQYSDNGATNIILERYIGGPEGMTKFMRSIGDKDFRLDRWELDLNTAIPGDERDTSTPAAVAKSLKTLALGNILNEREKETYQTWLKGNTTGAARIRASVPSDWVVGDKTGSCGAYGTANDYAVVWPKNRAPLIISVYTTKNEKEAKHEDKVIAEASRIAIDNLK

[10] = Table II, combinations 1:1 ratio antibiotic to inhibitor
[11] = Table II, combinations 1:1 ratio antibiotic to inhibitor, read-out: MIC P. aeroginosa (AmpC derepressed)
[12] = broth, serial two-fold dilutions
[13] = Table III, combinations 1:1 ratio Piperacillin to inhibitor
[14] = Table III, broth, serial two-fold dilutions, combinations 1:1 ratio Piperacillin to inhibitor
[15] = summary of Table II, combined with piperacillin or cefotaxime

CO/N=C(\C(=O)N[C@@H]1C(=O)N2C(C(=O)O)=C(COC(C)=O)CS[C@H]12)c1csc(N)n1 [Cefotaxime, cefotaxime]
MIC [1, 10]: > 64 µg/mL
MIC [2, 11]: > 64 µg/mL
MIC [3, 10]: 8 µg/mL
MIC [4, 12]: 16 µg/mL
MIC [5, 12]: 64 µg/mL

CCN1CCN(C(=O)N[C@@H](C(=O)N[C@@H]2C(=O)N3[C@@H]2SC(C)(C)[C@@H]3C(=O)O)c2ccccc2)C(=O)C1=O [Piperacillin]
MIC [1, 10]: > 64 µg/mL
MIC [1, 13]: 32 µg/mL
MIC [2, 11]: > 64 µg/mL
MIC ([2]; Table III, combinations 1:1 ratio Piperacillin to inhibitor, read-out: MIC P. aeroginosa): > 64 µg/mL
MIC E. coli + (TEM-1) [6]: >64 µg/mL
MIC [3, 10]: 32 µg/mL
MIC [3, 13]: 64 µg/mL
MIC [4, 12]: 32 µg/mL
MIC E. coli 300 + (AmpC) [4, 14]: 32 µg/mL
MIC [5, 12]: > 64 µg/mL
MIC E. coli GC 6265 (TEM-1) [5, 14]: >64 µg/mL

CC1(C)C(C(=O)O)N2C(=O)C3(CC3OC3CCCCC3)C2S1(=O)=O (single isomer, unassigned) [Example 13]
pIC50 ([7]; IC50 Class A(TEM-1)): 6.29
inhibition of class A(TEM-1) enzymes, in words [7]: potent inhibitors
pIC50 [8]: 7.43
inhibition of class C(AmpC) enzymes, in words [8]: very potent inhibitors

CC1(C)C(C(=O)O)N2C(=O)C3(CC3OC3CCCCC3)C2S1(=O)=O (single isomer, unassigned) [Example 12]
pIC50 ([7]; IC50 Class A(TEM-1)): 5.77
pIC50 [8]: 4.49

CC1(C)C(C(=O)O)N2C(=O)C3(CC3OC3CCCCC3)C2S1(=O)=O (single isomer, unassigned) [Example 14]
pIC50 ([7]; IC50 Class A(TEM-1)): 3.89
pIC50 [8]: 5.50

CC1(C)[C@H](C(=O)O)N2C(=O)C[C@H]2S1(=O)=O [Sulbactam, reference compound]
pIC50 [8]: 4.18

CC(C)(C)[Si](C)(C)O[C@H]1C[C@]12C(=O)N1[C@@H](C(=O)[O-])C(C)(C)S(=O)(=O)[C@@H]12.[Na+] [Example 9, (1R,2S,5R)-2-[(tert-Butyldimethylsilyl)oxy]-3,3-dimethyl-7-oxospiro[cyclopropane-1,6-[4]thia[1]azabicyclo[3.2.0]-heptane]-2-carboxylic acid, Sodium Salt, 4,4-dioxide]
activity as a beta-lactamase inhibitor with E.coli 300+(AmpC), in words [4, 15]: very potent activity
activity as a beta-lactamase inhibitor with E.coli GC6265 (TEM-1), in words [5, 15]: very potent activity
pIC50 ([7]; read-out: IC50 Class A(TEM-1)): 6.19
inhibition of class A(TEM-1) enzymes, in words [7]: potent inhibitors
pIC50 [9]: 4.92
pIC50 [8]: 7.68
inhibition of class C(AmpC) enzymes, in words [8]: very potent inhibitors

CC(C)(C)[Si](C)(C)OC1CC12C(=O)N1[C@@H](C(=O)O)C(C)(C)S(=O)(=O)[C@@H]12 (single isomer, unassigned) [Example 10]
pIC50 ([7]; IC50 Class A(TEM-1)): 4.92
pIC50 [8]: 6.46
inhibition of class C(AmpC) enzymes, in words [8]: very potent inhibitors

CC(C)(C)[Si](C)(C)OC1C[C@@]12C(=O)N1[C@@H](C(=O)O)C(C)(C)S(=O)(=O)[C@@H]12 (single isomer, unassigned) [Example 8]
pIC50 ([7]; IC50 Class A(TEM-1)): 4.77
pIC50 [8]: 5.72

— US6489316B2, “6-(spirocyclopropyl) penicillanic acid 4, 4-dioxides” (priority 2000, dated 2002)
